Results from article PMC5869712 (Scientific Reports, 2018).

Tests used:
[1] = test system: DBA/1 mice with collagen-induced arthritis; assay: Collagen-induced arthritis mouse model: clinical score, histology, safety; assay type: in vivo; conditions: CIA mice; 30 mg/kg; model group 3.8; grades 0-4
Protocol: The animal protocol was approved by the Animal Care and Use Committee of Sichuan University in China (IACUC number: 20100318). DBA/1 J mice (male, 6 weeks old) were obtained from Jackson Laboratory (Bar Harbor, ME). One day before the start of the experiment, CII solution (2 mg/ml) was prepared with 0.05 M acetic acid and stored at 4 °C. Just before the immunization, equal volumes of IFA and CII were mixed by a homogenizer in a precooled glass bottle in an ice water bath. Arthritis was induced in 8-week old male DBA/1 mice by immunizations with a 1:1 emulsion of bovine type II collagen (Chondrex) and Freund’s complete adjuvant (Sigma-Aldrich) on day 0 and with a 1:1 emulsion of bovine type II collagen in Freund’s incomplete adjuvant (Sigma-Aldrich) on day 21. […] On the day treatment was initiated, the mice were randomly assigned to controls (no collagen injection plus vehicle; […]. Mice were scored daily for signs of arthritis for 33 days. CIA development was inspected three times per week, and the inflammation of the four paws was graded from 0 to 4 (grade 0, paws with no swelling or focal redness; grade 1, paws with swelling of finger joints; grade 2, paws with a mild swelling of the ankle or wrist joints; grade 3, paws with severe inflammation of the entire paw; and grade 4, paws with deformity or ankylosis). Each paw was graded, and the four scores were totalled so that the possible maximum score per mouse was 16.
DBA1/J mice were sacrificed on day 33 after treatment and ankle joints were removed and fixed with 4% paraformaldehyde for more than 48 h. The joints were decalcified in EDTA buffer for 21 days and then embedded in paraffin blocks. Joint sections were stained with H&E or safranin O-fast green. Histological changes were examined under microscope using methods modified from McKew et al.[43] as follows: grade 0 = no abnormal findings; grade 1 = synoviocyte hypertrophy, slight synovial membrane fibrosis, slight-to-mild inflammatory cell infiltrates into the synovial membrane/articular capsule and/or joint space; grade 2 = grade 1 plus mild-to-moderate inflammatory cell infiltrates, pannus formation (if present) minimal with superficial cartilage erosion; grade 3 = grade 2 plus marked inflammatory cell infiltrates and fibrosis, mild-to-severe erosion of the cartilage extending into the subchondral bone; and grade 4 = loss of joint integrity through erosion or destruction with bone remodelling, massive inflammatory cell infiltrates, fibrosis, and ankylosis.

[2] = test system: cytokine gene transcription in joint tissue of CIA mice; assay: Cytokine gene expression in joints of CIA mice by RT-PCR; assay type: in vivo, mouse

C[C@@H]1CCN(C(=O)CC#N)C[C@@H]1N(C)c1ncnc2[nH]ccc12 [Tofacitinib, reference compound]
group mean histological severity score [1]: 1.8 | IL-10 expression [2]: significantly increased its expression
